# From patent US9637469B2, “Pyridine derivative” (Teijin Pharma Limited, priority 2012, dated 2017)
# Target: T1, human URAT1 (Homo sapiens, UniProt Q96S37)
# T1 construct: Full-length cDNA of human URAT1 (hURAT1)
# T1 sequence (Q96S37 1-553): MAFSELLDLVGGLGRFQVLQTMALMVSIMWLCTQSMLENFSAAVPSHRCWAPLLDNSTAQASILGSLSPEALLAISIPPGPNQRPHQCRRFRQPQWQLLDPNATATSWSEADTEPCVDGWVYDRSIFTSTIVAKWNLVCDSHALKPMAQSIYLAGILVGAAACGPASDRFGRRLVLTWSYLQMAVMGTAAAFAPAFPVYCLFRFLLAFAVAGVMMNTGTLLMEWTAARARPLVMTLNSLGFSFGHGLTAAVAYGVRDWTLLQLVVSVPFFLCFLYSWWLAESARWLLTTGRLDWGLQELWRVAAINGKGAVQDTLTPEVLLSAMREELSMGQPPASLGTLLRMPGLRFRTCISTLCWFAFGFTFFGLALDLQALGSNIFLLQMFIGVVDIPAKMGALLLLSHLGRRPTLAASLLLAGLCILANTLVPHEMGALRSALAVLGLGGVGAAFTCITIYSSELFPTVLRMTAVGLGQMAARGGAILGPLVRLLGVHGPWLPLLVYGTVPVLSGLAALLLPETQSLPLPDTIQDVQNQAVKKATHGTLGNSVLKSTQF
# Assay: Test for inhibition of uric acid transport using human URAT1-expressing cells;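 further: three stars up to 0.2 µM two stars 0.2-2 µM one star 2-20 µM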
# Assay type: cell-based
# Conditions: HEK 293 cells expressing human URAT1; 14C-labeled uric acid 25 μM; uptake 37° C. for 5 min
# Method in brief: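 HEK293 cells stably transfected with full-length hURAT1, preincubated 10 min at 37 °C in HBSS with NaCl replaced by Na gluconate. Uptake of 25 μM ¹⁴C-uric acid with compound ran 5 min at 37 °C, then scintillation counting. IC50 derived from % of DMSO-control URAT1-specific uptake.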
row,Inhibitory Activity (IC50 of uric acid transport inhibition),Compound
1,* * *,"O=C(O)c1c(C2CC2)nc(-c2cncc(F)c2)n1Cc1cc(Cl)ccc1Cl [Compound A155, 4-cyclopropyl-1-(2,5-dichlorobenzyl)-2-(5-fluoropyridin-3-yl)-1H-imidazole-5-carboxylic acid]"
2,* * *,"COc1cncc(-c2nc(C)c(C(=O)O)n2Cc2cc(Cl)ccc2Cl)c1 [Compound A157, 1-(2,5-dichlorobenzyl)-2-(5-methoxypyridin-3-yl)-4-methyl-1H-imidazole-5-carboxylic acid]"
3,* *,"Cc1nc(-c2cncc(C#N)c2)n(Cc2cc(Cl)ccc2Cl)c1C(=O)O [Compound A158, 2-(5-cyanopyridin-3-yl)-1-(2,5-dichlorobenzyl)-4-methyl-1H-imidazole-5-carboxylic acid]"
4,* *,"Cc1ccc(-c2nc(C)c(C(=O)O)n2Cc2cc(Cl)ccc2Cl)cn1 [Compound A159, 1-(2,5-dichlorobenzyl)-4-methyl-2-(6-methylpyridin-3-yl)-1H-imidazole-5-carboxylic acid]"
5,* *,"Cc1nc(-c2cccnc2F)n(Cc2cc(Cl)ccc2Cl)c1C(=O)O [Compound A160, 1-(2,5-dichlorobenzyl)-2-(2-fluoropyridin-3-yl)-4-methyl-1H-imidazole-5-carboxylic acid]"
6,* *,"COc1ccc(-c2nc(C)c(C(=O)O)n2Cc2cc(Cl)ccc2Cl)cn1 [Compound A161, 1-(2,5-dichlorobenzyl)-2-(6-methoxypyridin-3-yl)-4-methyl-1H-imidazole-5-carboxylic acid]"
7,* *,"COc1ncccc1-c1nc(C)c(C(=O)O)n1Cc1cc(Cl)ccc1Cl [Compound A162, 1-(2,5-dichlorobenzyl)-2-(2-methoxypyridin-3-yl)-4-methyl-1H-imidazole-5-carboxylic acid]"
8,* *,"Cc1nc(-c2ccc(Cl)nc2)n(Cc2cc(Cl)ccc2Cl)c1C(=O)O [Compound A164, 2-(6-chloropyridin-3-yl)-1-(2,5-dichlorobenzyl)-4-methyl-1H-imidazole-5-carboxylic acid]"
9,* * *,"Cc1nc(-c2cncc(N3CCCC3)c2)n(Cc2cc(Cl)ccc2Cl)c1C(=O)O [Compound A166, 1-(2,5-dichlorobenzyl)-4-methyl-2-(5-(pyrrolidin-1-yl)pyridin-3-yl)-1H-imidazole-5-carboxylic acid]"
10,* * *,"Cc1nc(-c2cncc([N+](=O)[O-])c2)n(Cc2cc(Cl)ccc2Cl)c1C(=O)O [Compound A167, 1-(2,5-dichlorobenzyl)-4-methyl-2-(5-nitropyridin-3-yl)-1H-imidazole-5-carboxylic acid]"
11,* * *,"Cc1nc(-c2cncc(C3CC3)c2)n(Cc2cc(Cl)ccc2Cl)c1C(=O)O [Compound A168, 2-(5-cyclopropylpyridin-3-yl)-1-(2,5-dichlorobenzyl)-4-methyl-1H-imidazole-5-carboxylic acid]"
12,* *,"Cc1nc(-c2cncc(F)c2)n(Cc2cc(C(F)(F)F)ccc2C(F)(F)F)c1C(=O)O [Compound A170, 1-(2,5-bis(trifluoromethyl)benzyl)-2-(5-fluoropyridin-3-yl)-4-methyl-1H-imidazole-5-carboxylic acid]"
13,* * *,"O=C(O)c1cnc(-c2cncc(F)c2)n1Cc1cc(Cl)ccc1Cl [Compound A171, 1-(2,5-dichlorobenzyl)-2-(5-fluoropyridin-3-yl)-1H-imidazole-5-carboxylic acid]"
14,* *,"Cc1nc(-c2cncc(O)c2)n(Cc2cc(Cl)ccc2Cl)c1C(=O)O [Compound A172, 1-(2,5-dichlorobenzyl)-2-(5-hydroxypyridin-3-yl)-4-methyl-1H-imidazole-5-carboxylic acid]"
15,* * *,"Cc1nc(-c2cncc(Cl)c2)n(Cc2cc(C(F)(F)F)ccc2C(F)(F)F)c1C(=O)O [Compound A173, 1-(2,5-bis(trifluoromethyl)benzyl)-2-(5-chloropyridin-3-yl)-4-methyl-1H-imidazole-5-carboxylic acid]"
16,* * *,"CCOc1cncc(-c2nc(C)c(C(=O)O)n2Cc2cc(Cl)ccc2Cl)c1 [Compound A174, 1-(2,5-dichlorobenzyl)-2-(5-ethoxypyridin-3-yl)-4-methyl-1H-imidazole-5-carboxylic acid]"
17,* *,"Cc1nc(-c2cncc(OC(C)C)c2)n(Cc2cc(Cl)ccc2Cl)c1C(=O)O [Compound A175, 1-(2,5-dichlorobenzyl)-2-(5-isopropoxypyridin-3-yl)-4-methyl-1H-imidazole-5-carboxylic acid]"
18,* * *,"Cc1nc(-c2cncc(-c3ccccc3)c2)n(Cc2cc(Cl)ccc2Cl)c1C(=O)O [Compound A176, 1-(2,5-dichlorobenzyl)-4-methyl-2-(5-phenylpyridin-3-yl)-1H-imidazole-5-carboxylic acid]"
19,* * *,"Cc1nc(-c2cncc(Br)c2)n(Cc2cc(Cl)ccc2Cl)c1C(=O)O [Compound A177, 2-(5-bromopyridin-3-yl)-1-(2,5-dichlorobenzyl)-4-methyl-1H-imidazole-5-carboxylic acid]"
20,* *,"Cc1ccc(C)c(Cn2c(-c3cncc(F)c3)nc(C)c2C(=O)O)c1 [Compound A178, 1-(2,5-dimethylbenzyl)-2-(5-fluoropyridin-3-yl)-4-methyl-1H-imidazole-5-carboxylic acid]"
21,* * *,"Cc1ccc(C)c(Cn2c(-c3cncc(Cl)c3)nc(C)c2C(=O)O)c1 [Compound A179, 2-(5-chloropyridin-3-yl)-1-(2,5-dimethylbenzyl)-4-methyl-1H-imidazole-5-carboxylic acid]"
22,* * *,"Cc1cncc(-c2nc(C)c(C(=O)O)n2Cc2cc(C)ccc2C)c1 [Compound A180, 1-(2,5-dimethylbenzyl)-4-methyl-2-(5-methylpyridin-3-yl)-1H-imidazole-5-carboxylic acid]"
23,* * *,"CCc1cncc(-c2nc(C)c(C(=O)O)n2Cc2cc(Cl)ccc2Cl)c1 [Compound A181, 1-(2,5-dichlorobenzyl)-2-(5-ethylpyridin-3-yl)-4-methyl-1H-imidazole-5-carboxylic acid]"
24,* * *,"CSc1cncc(-c2nc(C)c(C(=O)O)n2Cc2cc(Cl)ccc2Cl)c1 [Compound A182, 1-(2,5-dichlorobenzyl)-4-methyl-2-(5-(methylthio)pyridin-3-yl)-1H-imidazole-5-carboxylic acid]"
25,* * *,"CC(=O)c1cncc(-c2nc(C)c(C(=O)O)n2Cc2cc(Cl)ccc2Cl)c1 [Compound A183, 2-(5-acetylpyridin-3-yl)-1-(2,5-dichlorobenzyl)-4-methyl-1H-imidazole-5-carboxylic acid]"
26,* * *,"CCCOc1cncc(-c2nc(C)c(C(=O)O)n2Cc2cc(Cl)ccc2Cl)c1 [Compound A185, 1-(2,5-dichlorobenzyl)-4-methyl-2-(5-propoxypyridin-3-yl)-1H-imidazole-5-carboxylic acid]"
27,* *,"Cc1nc(-c2cncc(OCC3CCCCC3)c2)n(Cc2cc(Cl)ccc2Cl)c1C(=O)O [Compound A189, 2-(5-(cyclohexylmethoxy)pyridin-3-yl)-1-(2,5-dichlorobenzyl)-4-methyl-1H-imidazole-5-carboxylic acid]"
28,* *,"Cc1nc(-c2cncc(OCc3ccccc3)c2)n(Cc2cc(Cl)ccc2Cl)c1C(=O)O [Compound A190, 2-(5-(benzyloxy)pyridin-3-yl)-1-(2,5-dichlorobenzyl)-4-methyl-1H-imidazole-5-carboxylic acid]"

row,Compound,Inhibitory Activity (IC50 of uric acid transport inhibition)
1,"Cc1nc(-c2cncc(OCC(C)C)c2)n(Cc2cc(Cl)ccc2Cl)c1C(=O)O [Compound A188, 1-(2,5-dichlorobenzyl)-2-(5-isobutoxypyridin-3-yl)-4-methyl-1H-imidazole-5-carboxylic acid]",* * *

# Same assay, conditions: HEK 293 cells expressing human URAT1; 14C-labeled uric acid 25 μM; uptake 37° C. for 5 min; read-out: Inhibitory Activity (IC50 of uric acid transport inhibition)
row,IC50 [µM],Compound
1,2 to 20,Cc1nc(-c2ccc(N(C)C)nc2)n(Cc2cc(Cl)ccc2Cl)c1C(=O)O [Compound A163]
2,2 to 20,Cc1nc(-c2cncc([S+](C)(=O)[O-])c2)n(Cc2cc(Cl)ccc2Cl)c1C(=O)O [Compound A165]
3,2 to 20,COc1cccc(F)c1Oc1cncc(-c2nc(C)c(C(=O)O)n2Cc2cc(Cl)ccc2Cl)c1 [Compound A184]
4,2 to 20,Cc1nc(-c2cncc(OCCO)c2)n(Cc2cc(Cl)ccc2Cl)c1C(=O)O [Compound A186]
5,2 to 20,Cc1nc(-c2cncc(OCCCO)c2)n(Cc2cc(Cl)ccc2Cl)c1C(=O)O [Compound A187]
